Data taken from BindingDB's records for PubMed 34843914 (China Pharmaceutical University, 2022).
pIC50: −log10 of the molar value.

Target: Poly [ADP-ribose] polymerase 1 (Homo sapiens, UniProt P09874)
Experiment: Inhibition of PARP1 (unknown origin)

Chain of Poly [ADP-ribose] polymerase 1 (P09874 whole entry): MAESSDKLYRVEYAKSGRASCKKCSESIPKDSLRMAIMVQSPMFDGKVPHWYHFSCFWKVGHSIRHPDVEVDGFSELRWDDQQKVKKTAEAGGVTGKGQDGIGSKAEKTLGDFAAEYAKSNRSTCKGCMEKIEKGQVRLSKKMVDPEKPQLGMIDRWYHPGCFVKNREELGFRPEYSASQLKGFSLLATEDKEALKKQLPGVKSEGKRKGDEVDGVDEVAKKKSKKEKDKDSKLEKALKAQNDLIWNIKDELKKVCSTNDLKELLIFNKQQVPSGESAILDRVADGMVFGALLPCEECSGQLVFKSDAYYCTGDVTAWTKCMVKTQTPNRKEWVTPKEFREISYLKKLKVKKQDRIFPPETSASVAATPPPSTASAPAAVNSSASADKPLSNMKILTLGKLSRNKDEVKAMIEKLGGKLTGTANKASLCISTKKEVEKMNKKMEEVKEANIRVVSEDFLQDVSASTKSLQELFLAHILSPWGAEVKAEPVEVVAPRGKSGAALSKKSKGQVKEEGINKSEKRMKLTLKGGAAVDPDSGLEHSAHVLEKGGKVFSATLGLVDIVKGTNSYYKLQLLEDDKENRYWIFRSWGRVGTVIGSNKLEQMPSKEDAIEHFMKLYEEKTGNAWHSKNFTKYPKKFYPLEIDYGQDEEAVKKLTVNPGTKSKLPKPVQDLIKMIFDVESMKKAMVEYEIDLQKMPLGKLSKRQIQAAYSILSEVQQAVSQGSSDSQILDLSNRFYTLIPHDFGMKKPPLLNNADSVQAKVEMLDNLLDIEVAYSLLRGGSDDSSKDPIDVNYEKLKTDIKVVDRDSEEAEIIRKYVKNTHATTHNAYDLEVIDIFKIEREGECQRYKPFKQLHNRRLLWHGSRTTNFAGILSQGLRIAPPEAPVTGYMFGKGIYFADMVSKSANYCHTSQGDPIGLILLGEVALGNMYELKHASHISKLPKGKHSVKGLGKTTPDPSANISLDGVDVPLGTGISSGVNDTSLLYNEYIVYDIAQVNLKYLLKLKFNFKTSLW

pIC50: 6.59
Compound: O=c1cc(O)cc2oc(-c3ccc(O)c(-c4c(O)cc(O)c5c(=O)cc(-c6ccc(O)cc6)oc45)c3)cc(O)c1-2
